Where two headings read alike, the source gives them in different places.
How the values were obtained:
[1] = tested on: IFNγ-induced NO production; test: IFNγ-induced NO production in RAW264.7 macrophages (Griess reagent); assay type: cell-based; conditions: Mus musculus
Experimental: (§1) Inhibition of IFNγ-induced NO production by AIMs is Nrf2-dependent (Dinkova-Kostova, 2005). […] Nitrite (NO2^−) levels in the media were measured as a surrogate for nitric oxide using the Griess reagent assay. Cell viability was assessed using the WST-1 assay. […] 63170, 63171, 63179, and 63189 are compounds of the formulas: […]

[2] = tested on: RAW264.7 cells; test: WST-1 cell viability, RAW264.7; assay type: cell-based; conditions: Mus musculus
Experimental: as §1

[3] = tested on: Nrf2 target genes; test: Nrf2 target gene expression in HFL1 lung fibroblasts (quantitative PCR); assay type: cell-based, human; conditions: 18 hours
[4] = tested on: NADPH levels; test: WST-1 absorbance as marker of NADPH in HCT-116 cells; assay type: cell-based; conditions: 24 hours
[5] = tested on: H6PD, PGD, TKT, ME1 mRNA; test: expression of genes involved in NADPH synthesis, HCT-116 cells; assay type: cell-based; conditions: 24 hours
[6] = tested on: TNFα-induced NF-κB activation; test: TNFα-induced NF-κB luciferase reporter, HeLa/NF-κB-Luc cells; assay type: cell-based; conditions: Homo sapiens, 1 h pretreatment, TNFα 10 ng/mL 5 h
Description: (§2) NF-κB is a transcription factor that plays a central role in the regulation of many immune and inflammatory responses.

[7] = tested on: TNFα-induced NF-κB activation; test: TNFα-induced NF-κB luciferase reporter, A549/NF-κB-Luc cells; assay type: cell-based; conditions: Homo sapiens
Description: as §2

[8] = tested on: phosphorylation of IκBα; test: TNFα-induced phosphorylation of IκBα in HeLa cells (Western blot); assay type: cell-based, human; conditions: 6 h pretreatment, TNFα 20 ng/mL 5 min
Experimental: Total and phosphorylated levels of IκBα were evaluated by Western blot.

[9] = tested on: STAT3 phosphorylation; test: IL-6-induced STAT3 phosphorylation in HeLa cells; assay type: cell-based, human; conditions: 1 μM, 6 hours pretreatment
Description: (§3) Osteoclastogenesis is a multi-step differentiation process that results from the binding of RANKL to its receptor, RANK, on cells of hematopoietic origin.

[10] = tested on: RANKL-induced TRAP activity and formation of osteoclasts; test: RANKL-induced osteoclastogenesis in RAW264.7; assay type: cell-based; conditions: Mus musculus, Osteoclast; 2 h pretreatment, 50 ng/mL RANKL
Description: as §3

[11] = tested on: C2C12 muscle cells; test: glycolytic intermediates in C2C12 myotubes; assay type: cell-based, rodent
[12] = tested on: LPS-induced pulmonary inflammation; test: LPS-induced pulmonary inflammation in mice, first study (QD×3); assay type: in vivo, mouse
Experimental: Animals were sacrificed 20 hours after LPS administration. BALF was examined for pro-inflammatory cytokine expression.

[13] = tested on: cigarette smoke-induced COPD; test: cigarette smoke-induced COPD in mice; assay type: in vivo, mouse
Experimental: At the end of the study, lung tissue and BALF were collected for analysis of inflammatory infiltrates and cytokines. […] An AIM analog (63355) was tested in the same study for comparison. 63355 is a compound of the formula: […]

[14] = tested on: LPS-induced sepsis; conditions: mouse, in vivo
[15] = tested on: cynomolgus monkeys; test: cardiovascular evaluation in conscious cynomolgus monkeys (telemetry); assay type: in vivo, monkey
Experimental: Animals were instrumented with telemetry transmitters for measurement of body temperature, blood pressure, heart rate, and electrocardiogram (ECG) evaluation. Body temperature, systolic, diastolic, and mean arterial blood pressure, heart rate, and ECG parameters (QRS duration and RR, PR, and QT intervals) were monitored continuously from at least 2 hours pre-dose until at least 24 hours post-dose. ECG tracings were printed at designated time points from the cardiovascular monitoring data and were qualitatively evaluated by a board-certified veterinary cardiologist.
Observations for morbidity, mortality, injury, and availability of food and water were conducted at least twice daily for all animals. Clinical observations were conducted pre-dose, approximately 4 hours post-dose, and following completion of the cardiovascular monitoring period. Body weights were measured and recorded on the day prior to each treatment administration.

[16] = tested on: CD rats; test: neurobehavioral evaluation in rats (FOB); assay type: in vivo, rat
Experimental: One additional group of 10 animals/sex served as the control and received vehicle (sesame oil).
Observations for morbidity, mortality, injury, and availability of food and water were conducted twice daily for all animals. Observations for clinical signs were conducted prior to dosing on Day 1 and following each functional observational battery (FOB) evaluation. FOB evaluations were conducted pre-dose (Day −1) and at approximately 4 and 24 hours post-dose. Body weights were measured and recorded pre-dose on Day 1.

[17] = tested on: CD rats; test: pulmonary evaluation in rats; assay type: in vivo, rat; conditions: doses up to and including 30 mg/kg, single oral dose
Experimental: One additional group of eight animals/sex served as the control and received vehicle (sesame oil).
Observations for mortality, morbidity, injury, and availability of food and water were conducted twice daily for all animals. Clinical observations were conducted prior to dosing, approximately 4 hours post-dose, and following completion of the 8-hour pulmonary monitoring period. […] Pulmonary function (respiratory rate, tidal volume, and minute volume) was monitored for at least 1 hour prior to dosing to establish a baseline and for at least 8 hours post-dose.

[18] = topical ocular administration pharmacokinetics in rabbits; assay type: in vivo, rabbit
Experimental: Using rabbits, the ocular absorption and systemic pharmacokinetic behavior of RTA 408 was evaluated.

[19] = tested on: CYP2B6; test: CYP450 induction in cultured human hepatocytes: CYP2B6; assay type: in vitro ADME; conditions: up to 3 μM
[20] = tested on: CYP3A4; test: CYP450 induction in cultured human hepatocytes: CYP3A4; assay type: in vitro ADME; conditions: up to 3 μM
[21] = tested on: NQO1; test: NQO1 activity in mouse tissues, 25 mg/kg PO QD×3; assay type: in vivo
[22] = tested on: LPS-induced pulmonary inflammation
[23] = metabolism in monkey liver microsomes; conditions: 60-minute incubation, NADPH and UGT
[24] = tested on: radiation-induced oral mucositis; test: radiation-induced oral mucositis in hamsters

## CC1(C)CC[C@]2(NC(=O)C(C)(F)F)CC[C@]3(C)[C@H](C(=O)C=C4[C@@]5(C)C=C(C#N)C(=O)C(C)(C)[C@@H]5CC[C@]43C)[C@@H]2C1 [RTA 408, N-((4aS,6aR,6bS,8aR,12aS,14aR,14bS)-11-cyano-2,2,6a,6b,9,9,12a-heptamethyl-10,14-dioxo-1,2,3,4,4a,5,6,6a,6b,7,8,8a,9,10,12a,14,14a,14b-octadecahydropicen-4a-yl)-2,2-difluoropropanamide]
[1]; 2 h pre-treatment, 20 ng/mL IFNγ 24 h, read-out: IC50, suppression of IFNγ-induced NO production
  IC50: 3.8 ± 1.2 nM
[1]; Table 15, read-out: NO IC50 (nM), RAW264.7
  IC50: 4 ± 1 nM
[2]
  IC50: 125 nM
[3]
  concentration at which induction of NQO1, HMOX1, GCLM, TXNRD1 is evident: ≤ 15.6 nM
[4]
  WST-1 absorbance (NADPH marker): increased WST-1 absorbance in a dose-dependent manner
[5]
  mRNA levels of H6PD, PGD, TKT, ME1: dose-dependent increase in expression of genes involved in NADPH synthesis
[6]
  IC50: 517 ± 83 nM
[7]
  IC50: 627 nM
[8]
  TNFα-induced phosphorylation of IκBα: inhibited TNFα-induced phosphorylation of IκBα in a dose-dependent manner
[9]
  IL-6-induced phosphorylation of STAT3: inhibited phosphorylation of STAT3 induced by IL-6
[10]
  IC50: 5 to 10 nM
[11]; 250 nM or 500 nM, 18 hours, P<0.0001
  intracellular pyruvate levels: increased intracellular pyruvate levels
[11]; 1 μM or 2 μM, 3 hours
  intracellular and extracellular lactate levels: significantly increased intracellular and extracellular lactate levels
[12]; 100 and 150 mg/kg doses
  TNFα in BALF: significant reduction
[12]; all doses (30, 100, 150 mg/kg)
  IL-12p40 in BALF: significant reduction
[13]; 30 mg/kg
  lung Txnrd enzyme activity: induced
[13]; doses as low as 3 mg/kg, two weeks
  pro-inflammatory cytokines including KC and TNFα: significant suppression of pro-inflammatory cytokines
[13]; mouse, in vivo
  lung Gsr enzyme activity: not altered
  lung Gst enzyme activity: decreased with treatment
  lung NQO1 enzyme activity decreased by cigarette smoke: rescued this loss
[14]
  survival, systemic LPS: improved survival
[15]; 100 mg/kg oral, not considered related to treatment
  increase in the corrected QT interval (average): 1.6%
[15]; doses up to and including 100 mg/kg oral
  effects on cardiovascular function: no effects on cardiovascular function
[16]; 30 mg/kg
  body weight gain approximately 24 hours after dosing: Slight decreases in body weight gain
[16]; doses up to and including 30 mg/kg, single oral dose
  basic neurobehavioral endpoints: did not produce any adverse effects
[17]
  basic pulmonary endpoints: did not produce any adverse effects
[18]; ocular topical administration
  eye tissues with the highest concentrations: cornea, retina, or iris
[18]; once per day for 5 days
  plasma concentrations after oral vs topical ocular administration: ~100 fold
[19]
  induction of enzyme activity: not an inducer
[20]
  induction of enzyme activity: not an inducer
[21]
  activation of NQO1 in multiple tissues: Meaningful activation of NQO1
[22]; 10 mg/kg
  TNFα in BALF: Significant reductions
[22]; 30 mg/kg
  IL-12p40, TNFα, and RANTES in BALF: significant reductions
[22]; 10 and 30 mg/kg
  lung NQO1 enzyme activity and total GSH: significant induction of NQO1 enzyme activity and increases in total GSH
[23]
  parent molecule remaining: < 10%
[24]; 100 mg/kg
  hamsters euthanized on Day 2 due to weight loss in excess of 20%: two out of eight
[24]; 30 and 100 mg/kg
  duration of ulcerative mucositis: significant reduction
[24]; hamster, in vivo
  percentage of animals with mucositis scores ≥3: dose-dependent decrease
